Assay results from article PMC3781056, “New Pyrazolopyrimidine Inhibitors of Protein Kinase D as Potent Anticancer Agents for Prostate Cancer Cells” (PLoS ONE, 2013).
Like-named read-outs stand apart in the source and are kept apart here.

Tests used:
[1] = biological target: PKD isoforms; assay: Radiometric PKD kinase assay, summary statement for PKD isoforms; assay type: biochemical, human; conditions: approximate, all PKD isoforms; read-out: concentration that blocked 50% of PKD activity
Procedure: Recombinant human PKD1, 2, or 3 proteins were incubated in a mixture containing a peptide substrate derived from a PKD substrate, HDAC-5, and 10 different concentrations of the two compounds.

[2] = test system: PC3 cells; assay: MTT assay; assay type: cell-based
Procedure: PC3 cells were plated in triplicates in 24-well plates. Cells were allowed to attach overnight. […] Cells were counted daily for a total of 5 days. Fresh media and inhibitor were added every 2 days. The means of triplicate determinations were plotted over time. The experiment was repeated twice and results from one representative experiment are shown. […] PC3 cells were seeded into 96-well plates (3000 cells/well) and were then incubated in media containing 0.3–100 µM inhibitors for 72 h. MTT solution was added to each well and incubated for 4 h. Optical density was read at 570 nm to determine cell viability. The IC50 was determined as the mean of two independent experiments for each compound. C. […] Cell cycle distribution was determined by flow cytometry after propidium iodide labeling of fixed cells. Statistical significance was determined by unpaired t-test and is indicated. **, p<0.01; ***, p<0.001. […] The label 1-NA-PP1 is taken from panels A and C, where it is the only substance named in the picture.
PC3 cells were seeded into 96-well plates (3000 cells/well) and allowed to attach overnight. Cells were then incubated in media containing […] inhibitors for 72 h. […] The plate was mix by shaking for 5 min and the optical density was determined at 570 nm.

CC(C)(C)n1nc(-c2cccc3ccccc23)c2c(N)ncnc21 [Compound 1-NA-PP1, 1-(t-Butyl)-3-(naphthalen-1-yl)-1H-pyrazolo[3,4-d]pyrimidin-4-amine]
IC50 [1]: ~0.1 µM | IC50 ([2]; Homo sapiens, PC-3, 72 h, read-out: IC50 for cell death (MTT), PC3 cells, 72 h): 23.3 ± 5.7 µM | IC50 ([2]; read-out: IC50 for cell death (MTT), PC3 cells, 72 h): ~20 µM
